Here are results for 17 molecules from patent US9686984B2, “Macrocyclic picolinamides as fungicides” (DOW AGROSCIENCES LLC, priority 2014, dated 2017).

Like-named read-outs stand apart in the source and are kept apart here.

A word on the melting point: it is the temperature of the solid-liquid transition.

Series [1] has as its system Zymoseptoria tritici. The series can be described thus: Leaf Blotch of Wheat (SEPTTR) disease control on wheat seedlings. The class given is in vivo. The conditions noted are these: for pest or weed control at 121.5 g/ha: Low Volume (121.5 g/H); for pest or weed control at 100 µg/mL: High Volume (100 ppm). On the procedure: Example A: Evaluation of Fungicidal Activity: Leaf Blotch of Wheat (Mycosphaerella graminicola; Anamorph: Zymoseptoria tritici; Bayer code […]) Technical grades of materials were dissolved in acetone, which were then mixed with nine volumes of water containing 110 ppm Triton X-100. The fungicide solutions were applied onto wheat seedlings using an automated booth sprayer to run-off. All sprayed plants were allowed to air dry prior to further handling. All fungicides were evaluated using the aforementioned method for their activity vs. all target diseases, unless stated otherwise. Wheat leaf blotch and brown rust activity were also evaluated using track spray applications, in which case the fungicides were formulated as EC formulations, containing 0.1% Trycol 5941 in the spray solutions. Wheat plants (variety Yuma) were grown from seed in a greenhouse in 50% mineral soil/50% soil-less Metro mix until the first leaf was fully emerged, with 7-10 seedlings per pot. These plants were inoculated with an aqueous spore suspension of Septoria tritici either prior to or after fungicide treatments. After inoculation the plants were kept in 100% relative humidity (one day in a dark dew chamber followed by two to three days in a lighted dew chamber at 20° C.) to permit spores to germinate and infect the leaf. The plants were then transferred to a greenhouse set at 20° C. for disease to develop. When disease symptoms were fully expressed on the 1st leaves of untreated plants, infection levels were assessed on a scale of 0 to 100 percent disease severity. Percent disease control was calculated using the ratio of disease severity on treated plants relative to untreated plants.

Series [2] deals with Puccinia triticina. Kind of series: Wheat Brown Rust (PUCCRT) disease control on wheat seedlings. The class given is in vivo. Particulars: for pest or weed control at 121.5 g/ha: Low Volume (121.5 g/H); for pest or weed control at 100 µg/mL: High Volume (100 ppm). On the procedure: Technical grades of materials were dissolved in acetone, which were then mixed with nine volumes of water containing 110 ppm Triton X-100. The fungicide solutions were applied onto wheat seedlings using an automated booth sprayer to run-off. All sprayed plants were allowed to air dry prior to further handling. All fungicides were evaluated using the aforementioned method for their activity vs. all target diseases, unless stated otherwise. Wheat leaf blotch and brown rust activity were also evaluated using track spray applications, in which case the fungicides were formulated as EC formulations, containing 0.1% Trycol 5941 in the spray solutions. Wheat plants (variety Yuma) were grown from seed in a greenhouse in 50% mineral soil/50% soil-less Metro mix until the first leaf was fully emerged, with 7-10 seedlings per pot. These plants were inoculated with an aqueous spore suspension of Septoria tritici either prior to or after fungicide treatments. After inoculation the plants were kept in 100% relative humidity (one day in a dark dew chamber followed by two to three days in a lighted dew chamber at 20° C.) to permit spores to germinate and infect the leaf. The plants were then transferred to a greenhouse set at 20° C. for disease to develop. When disease symptoms were fully expressed on the 1st leaves of untreated plants, infection levels were assessed on a scale of 0 to 100 percent disease severity. Percent disease control was calculated using the ratio of disease severity on treated plants relative to untreated plants. Example B: Evaluation of Fungicidal Activity: Wheat Brown Rust (Puccinia triticina; Synonym: Puccinia recondita f. sp. tritici; Bayer code PUCCRT) Wheat plants (variety Yuma) were grown from seed in a greenhouse in 50% mineral soil/50% soil-less Metro mix until the first leaf was fully emerged, with 7-10 seedlings per pot. These plants were inoculated with an aqueous spore suspension of Puccinia triticina either prior to or after fungicide treatments. After inoculation the plants were kept in a dark dew room at 22° C. with 100% relative humidity overnight to permit spores to germinate and infect the leaf. The plants were then transferred to a greenhouse set at 24° C. for disease to develop. Fungicide formulation, application and disease assessment followed the procedures as described in the Example A.

The subject of series [3] is Phakopsora pachyrhizi. Kind of series: Asian Soybean Rust (PHAKPA) disease control. The class given is in vivo. The conditions noted are these: 25 ppm. On the procedure: Example H: Evaluation of Fungicidal Activity: Asian Soybean Rust (Phakopsora pachyrhizi; Bayer Code […]) Technical grades of materials were dissolved in acetone, which were then mixed with nine volumes of water containing 0.011% Tween 20. The fungicide solutions were applied onto soybean seedlings using an automated booth sprayer to run-off. All sprayed plants were allowed to air dry prior to further handling. Soybean plants (variety Williams 82) were grown in soil-less Metro mix, with one plant per pot. Two weeks old seedlings were used for testing. Plants were inoculated either 3 days prior to or 1 day after fungicide treatments. Plants were incubated for 24 h in a dark dew room at 22° C. and 100% relative humidity then transferred to a growth room at 23° C. for disease to develop. Disease severity was assessed on the sprayed leaves.

[4] abbreviates: 24 h, 1 Day Protectant, read-out: SEPTTR disease control, 1 DP.
The mark [5] stands for this setting: 72 h, 3 Day Curative, read-out: SEPTTR disease control, 3 DC.
Where [6] appears, read: 24 h, 1 Day Protectant, read-out: PUCCRT disease control, 1 DP.
Setting [7] is: 72 h, 3 Day Curative, read-out: PUCCRT disease control, 3 DC.

Molecule `COc1ccnc(C(=O)N[C@H]2CCO[C@H](Cc3ccccc3)[C@@H](CCC(C)C)[C@H](C)OC2=O)c1OCOC(C)=O` [Compound 29] registered a melting point of 55 to 60 °C. Also, the pest or weed control at 121.5 g/ha in series [1] (setting [4]) is > 70%. The pest or weed control at 121.5 g/ha in series [1] (setting [5]) is > 70%. The pest or weed control at 121.5 g/ha in series [2] (setting [6]) was > 70%. For the same molecule, in series [2] (setting [7]), the pest or weed control at 121.5 g/ha was > 70%.
For `COc1ccnc(C(=O)N[C@H]2CCO[C@H](CCc3ccc(F)cc3)[C@@H](CCC(C)C)[C@H](C)OC2=O)c1OCOC(=O)C(C)C` [Compound 39], the melting point is 49 to 54 °C. In addition, in series [1] (setting [4]), the pest or weed control at 121.5 g/ha was > 70%. In series [1] (setting [5]), the pest or weed control at 121.5 g/ha was < 70%. Moreover, the pest or weed control at 121.5 g/ha in series [2] (setting [6]) was > 70%. Also, in series [2] (setting [7]), the pest or weed control at 121.5 g/ha is > 70%.
For the molecule `CCCC[C@H]1[C@H](C)OC(=O)[C@@H](N)CCO[C@@H]1COc1ccccc1.Cl`, the melting point lay in the range of 195 to 197 °C.
`COc1ccnc(C(=O)N[C@H]2CCOC[C@@H](Cc3ccccc3-c3ccccc3)[C@H](C)OC2=O)c1OCOC(=O)C(C)C` [Compound 40] came in with a melting point of 54 to 59 °C. Moreover, the pest or weed control at 121.5 g/ha in series [1] (setting [4]) was > 70%. Further, the pest or weed control at 121.5 g/ha in series [1] (setting [5]) was > 70%. Also, the pest or weed control at 121.5 g/ha in series [2] (setting [6]) was > 70%. In addition, the pest or weed control at 121.5 g/ha in series [2] (setting [7]) was > 70%.
`CCC[C@H]1OCC[C@H](NC(=O)c2nccc(OC)c2OCOC(=O)COCC)C(=O)O[C@@H](C)[C@@H]1Cc1ccccc1` [Compound 43]: the pest or weed control at 100 µg/mL in series [1] (setting [4]), in series [1] (setting [5]), in series [2] (setting [6]) and in series [2] (setting [7]) was > 70% each time. For the same molecule, the pest or weed control at 121.5 g/ha in series [1] (setting [4]), in series [1] (setting [5]), in series [2] (setting [6]) and in series [2] (setting [7]) was > 70% throughout. Moreover, the “PHAKPA disease control, 1DP” value in series [3] (1 Day Protectant) is reported as “A (>70)”. The “PHAKPA disease control, 3DC” value in series [3] (3 Day Curative) is given as “A (>70)”.
As to `CC(C)CC[C@@H]1COCC[C@H](NC(=O)OC(C)(C)C)C(=O)O[C@H]1C` [Compound 103], the melting point is 110 to 112 °C.
`CCC[C@H]1OCC[C@H](NC(=O)c2nccc(OC)c2O)C(=O)O[C@@H](C)[C@@H]1Cc1ccccc1` [Compound 50] gave a melting point of 52 to 56 °C. Besides, the pest or weed control at 100 µg/mL in series [1] (setting [4]) was > 70%. Moreover, the pest or weed control at 100 µg/mL in series [1] (setting [5]) is > 70%. The pest or weed control at 100 µg/mL in series [2] (setting [6]) is > 70%. Besides, the pest or weed control at 100 µg/mL in series [2] (setting [7]) is > 70%.
With `COc1ccnc(C(=O)N[C@H]2CCO[C@H](CCc3ccccc3)[C@@H](CCC(C)C)[C@H](C)OC2=O)c1OCOC(C)=O` [Compound 26], the melting point is 48 to 54 °C. In series [1] (setting [4]), the pest or weed control at 121.5 g/ha was > 70%. In addition, the pest or weed control at 121.5 g/ha in series [1] (setting [5]) was > 70%. Also, the pest or weed control at 121.5 g/ha in series [2] (setting [6]) is > 70%. For the same molecule, the pest or weed control at 121.5 g/ha in series [2] (setting [7]) is > 70%.
On to `COc1ccnc(C(=O)N[C@H]2CCO[C@H](CCc3ccc(F)cc3)[C@@H](CCC(C)C)[C@H](C)OC2=O)c1OCOC(C)=O` [Compound 27], for which the melting point lay within 49 to 54 °C. For the same molecule, in series [1] (setting [4]), the pest or weed control at 121.5 g/ha was > 70%. Besides, in series [1] (setting [5]), the pest or weed control at 121.5 g/ha is > 70%. Also, in series [2] (setting [6]), the pest or weed control at 121.5 g/ha is > 70%. Further, the pest or weed control at 121.5 g/ha in series [2] (setting [7]) was > 70%.
For `CCCC[C@H]1[C@H](C)OC(=O)[C@@H](NC(=O)c2nccc(OC)c2O)CCO[C@@H]1CC` [Compound 67], the melting point was in the range of 44 to 46 °C. The pest or weed control at 100 µg/mL in series [1] (setting [4]) is > 70%. For the same molecule, the pest or weed control at 100 µg/mL in series [1] (setting [5]) is < 70%. In series [2] (setting [6]), the pest or weed control at 100 µg/mL is > 70%. Moreover, the pest or weed control at 100 µg/mL in series [2] (setting [7]) is > 70%.
In the case of `CC(C)CC[C@H]1[C@H](C)OC(=O)[C@@H](NC(=O)OC(C)(C)C)CCO[C@@H]1Cc1ccccc1` [Compound 102], the melting point was in the range of 41 to 44 °C.
Turning to `CCCC[C@H]1[C@H](C)OC(=O)[C@@H](NC(=O)c2nccc(OC)c2OCOC(=O)COCC)CCO[C@@H]1CCc1ccccc1` [Compound 45], the pest or weed control at 121.5 g/ha in series [1] (setting [4]), in series [1] (setting [5]), in series [2] (setting [6]) and in series [2] (setting [7]) was > 70% in each case.
For `COc1ccnc(C(=O)N[C@H]2CCOC[C@@H](CCC(C)C)[C@H](C)OC2=O)c1O` [Compound 63], the melting point lay in the range of 49 to 53 °C.
Still for that read-out and setting: to `CC(C)CC[C@H]1[C@H](C)OC(=O)[C@@H](NC(=O)OC(C)(C)C)CCO[C@@H]1CCc1ccc(F)cc1` [Compound 100] belongs 39 to 44 °C.
`COc1ccnc(C(=O)N[C@H]2CCOC[C@@H](CCC(C)C)[C@H](C)OC2=O)c1OCOC(C)=O` [Compound 30]: the pest or weed control at 121.5 g/ha in series [1] (setting [4]), in series [1] (setting [5]), in series [2] (setting [6]) and in series [2] (setting [7]) was > 70% throughout.
Take `COc1ccnc(C(=O)N[C@H]2CCO[C@H](Cc3ccccc3)[C@@H](CCC(C)C)[C@H](C)OC2=O)c1OC(C)=O` [Compound 12]: the pest or weed control at 121.5 g/ha in series [1] (setting [4]), in series [1] (setting [5]), in series [2] (setting [6]) and in series [2] (setting [7]) was > 70% in each case.
As to `COc1ccnc(C(=O)N[C@H]2CCO[C@H](CCc3ccc(F)cc3)[C@@H](CCC(C)C)[C@H](C)OC2=O)c1OC(C)=O` [Compound 10], the pest or weed control at 121.5 g/ha in series [1] (setting [4]), in series [1] (setting [5]), in series [2] (setting [6]) and in series [2] (setting [7]) was > 70% throughout.
